Read-outs that look alike come from different tables or passages of the source.
How the values were obtained:
Format in all cases: in vivo
[1] = test system: giant foxtail (Setaria faberii); assay: Test A pre-/postemergence plant response; settings: Setaria faberi, 240 h; for pest or weed control at 125 g/ha: 125 g ai/ha; for pest or weed control at 500 g/ha: 500 g ai/ha
Method in brief: (§1)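 Plants grown from seed in a loam soil and sand mix received test compounds both as a preemergence soil spray and, at the same time, as a postemergence spray at the one- to two-leaf stage. Injury was judged visually against untreated controls roughly ten days later, 0 meaning no effect and 100 complete control.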

[2] = test system: pigweed (Amaranthus retroflexus); assay: Test A pre-/postemergence plant response; settings: Amaranthus retroflexus, 240 h; for pest or weed control at 125 g/ha: 125 g ai/ha; for pest or weed control at 500 g/ha: 500 g ai/ha
Method in brief: as §1

[3] = test system: morningglory (Ipomoea spp.); assay: Test A pre-/postemergence plant response; settings: Ipomoea, 240 h; for pest or weed control at 125 g/ha: 125 g ai/ha; for pest or weed control at 500 g/ha: 500 g ai/ha
Method in brief: as §1

[4] = test system: velvetleaf (Abutilon theophrasti); assay: Test A pre-/postemergence plant response; settings: Abutilon theophrasti, 240 h; for pest or weed control at 125 g/ha: 125 g ai/ha; for pest or weed control at 500 g/ha: 500 g ai/ha
Method in brief: as §1

[5] = test system: wheat (Triticum aestivum); assay: Test A pre-/postemergence plant response; settings: Triticum aestivum, 240 h; for plant injury at 125 g/ha: 125 g ai/ha; for plant injury at 500 g/ha: 500 g ai/ha
Method in brief: as §1

[6] = test system: large crabgrass (Digitaria sanguinalis); assay: Test A pre-/postemergence plant response; settings: Digitaria sanguinalis, 240 h; for pest or weed control at 125 g/ha: 125 g ai/ha; for pest or weed control at 500 g/ha: 500 g ai/ha
Method in brief: as §1

corn (Zea mays) = assay: Test A pre-/postemergence plant response; settings: Zea mays, 240 h; for Corn plant response rating (crop injury, 0 = no effect, 100 = complete kill) at 500 g/ha: 500 g ai/ha
Method in brief: as §1

[7] = test system: barnyardgrass (Echinochloa crus-galli); assay: Test A pre-/postemergence plant response; settings: Echinochloa crus-galli, 240 h; for pest or weed control at 125 g/ha: 125 g ai/ha; for pest or weed control at 500 g/ha: 500 g ai/ha
Method in brief: as §1

rice (Oryza sativa) = assay: Test B flooded paddy test; settings: Oryza sativa
Method in brief: (§2)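 Seedlings reaching 2 leaves are flooded 3 cm deep; test material is delivered to that water, which stays at the same depth. Plants remain in a greenhouse 13–15 days and are then scored by eye versus controls from 0 to 100.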

[8] = test system: ducksalad (Heteranthera limosa); assay: Test B flooded paddy test; settings: Heteranthera limosa, 360 h
Method in brief: as §2

O=C1CCCC(O)=C1C(=O)c1cnc(-c2ccccc2)n(Cc2ccccc2)c1=O [Compound 17, 5-[(2-hydroxy-6-oxo-1-cyclohexen-1-yl)carbonyl]-2-phenyl-3-(phenylmethyl)-4(3H)-pyrimidinone]
pest or weed control at 125 g/ha ([1]; post-emergence, Postemergence, visual injury, 0 to 100 scale (0 no effect, 100 complete control), approx. ten days, read-out: Foxtail, Giant plant response rating): 0%
pest or weed control at 500 g/ha ([1]; post-emergence, Postemergence, 0 to 100 scale, 0 = no effect, 100 = complete control, approx. ten days, read-out: Plant response rating, Foxtail, Giant): 30%
pest or weed control at 125 g/ha ([1]; pre-emergence, Preemergence, 0 to 100 scale, 0 = no effect, 100 = complete control, read-out: Plant response rating, Foxtail, Giant): 0%
pest or weed control at 500 g/ha ([1]; pre-emergence, Preemergence, visual injury, 0 to 100 scale (0 no effect, 100 complete control), approx. ten days, read-out: Plant response rating, Foxtail, Giant): 20%
pest or weed control at 125 g/ha ([2]; post-emergence, Postemergence, visual injury, 0 to 100 scale (0 no effect, 100 complete control), approx. ten days, read-out: Pigweed plant response rating): 80%
pest or weed control at 500 g/ha ([2]; post-emergence, Postemergence, 0 to 100 scale, 0 = no effect, 100 = complete control, approx. ten days, read-out: Plant response rating, Pigweed): 100%
pest or weed control at 125 g/ha ([2]; pre-emergence, Preemergence, 0 to 100 scale, 0 = no effect, 100 = complete control, read-out: Plant response rating, Pigweed): 80%
pest or weed control at 500 g/ha ([2]; pre-emergence, Preemergence, visual injury, 0 to 100 scale (0 no effect, 100 complete control), approx. ten days, read-out: Plant response rating, Pigweed): 90%
pest or weed control at 125 g/ha ([3]; post-emergence, Postemergence, visual injury, 0 to 100 scale (0 no effect, 100 complete control), approx. ten days, read-out: Morningglory plant response rating): 20%
pest or weed control at 500 g/ha ([3]; post-emergence, Postemergence, 0 to 100 scale, 0 = no effect, 100 = complete control, approx. ten days, read-out: Plant response rating, Morningglory): 70%
pest or weed control at 125 g/ha ([3]; pre-emergence, Preemergence, 0 to 100 scale, 0 = no effect, 100 = complete control, read-out: Plant response rating, Morningglory): 0%
pest or weed control at 500 g/ha ([3]; pre-emergence, Preemergence, visual injury, 0 to 100 scale (0 no effect, 100 complete control), approx. ten days, read-out: Plant response rating, Morningglory): 10%
pest or weed control at 125 g/ha ([4]; post-emergence, Postemergence, visual injury, 0 to 100 scale (0 no effect, 100 complete control), approx. ten days, read-out: Velvetleaf plant response rating): 100%
pest or weed control at 500 g/ha ([4]; post-emergence, Postemergence, 0 to 100 scale, 0 = no effect, 100 = complete control, approx. ten days, read-out: Plant response rating, Velvetleaf): 100%
pest or weed control at 125 g/ha ([4]; pre-emergence, Preemergence, 0 to 100 scale, 0 = no effect, 100 = complete control, read-out: Plant response rating, Velvetleaf): 40%
pest or weed control at 500 g/ha ([4]; pre-emergence, Preemergence, visual injury, 0 to 100 scale (0 no effect, 100 complete control), approx. ten days, read-out: Plant response rating, Velvetleaf): 100%
plant injury at 125 g/ha ([5]; post-emergence, Postemergence, visual injury, 0 to 100 scale (0 no effect, 100 complete control), approx. ten days, read-out: Wheat plant response rating): 0%
plant injury at 500 g/ha ([5]; post-emergence, Postemergence, 0 to 100 scale, 0 = no effect, 100 = complete control, approx. ten days, read-out: Plant response rating, Wheat): 10%
plant injury at 125 g/ha ([5]; pre-emergence, Preemergence, 0 to 100 scale, 0 = no effect, 100 = complete control, read-out: Plant response rating, Wheat): 0%
plant injury at 500 g/ha ([5]; pre-emergence, Preemergence, visual injury, 0 to 100 scale (0 no effect, 100 complete control), approx. ten days, read-out: Plant response rating, Wheat): 0%
pest or weed control at 125 g/ha ([6]; post-emergence, Postemergence, visual injury, 0 to 100 scale (0 no effect, 100 complete control), approx. ten days, read-out: Crabgrass, Large plant response rating): 10%
pest or weed control at 500 g/ha ([6]; post-emergence, Postemergence, 0 to 100 scale, 0 = no effect, 100 = complete control, approx. ten days, read-out: Plant response rating, Crabgrass, Large): 70%
pest or weed control at 125 g/ha ([6]; pre-emergence, Preemergence, 0 to 100 scale, 0 = no effect, 100 = complete control, read-out: Plant response rating, Crabgrass, Large): 20%
pest or weed control at 500 g/ha ([6]; pre-emergence, Preemergence, visual injury, 0 to 100 scale (0 no effect, 100 complete control), approx. ten days, read-out: Plant response rating, Crabgrass, Large): 100%
plant injury at 125 g/ha (corn (Zea mays); post-emergence, Postemergence, 125 g ai/ha, visual injury, 0 to 100 scale (0 no effect, 100 complete control), approx. ten days, read-out: Corn plant response rating): 0%
Corn plant response rating (crop injury, 0 = no effect, 100 = complete kill) at 500 g/ha (corn (Zea mays); post-emergence, Postemergence, 0 to 100 scale, 0 = no effect, 100 = complete control, approx. ten days): 10%
Corn plant response rating (crop injury, 0 = no effect, 100 = complete kill) at 125 g/ha (corn (Zea mays); pre-emergence, Preemergence, 125 g ai/ha, 0 to 100 scale, 0 = no effect, 100 = complete control): 0%
Corn plant response rating (crop injury, 0 = no effect, 100 = complete kill) at 500 g/ha (corn (Zea mays); pre-emergence, Preemergence, visual injury, 0 to 100 scale (0 no effect, 100 complete control), approx. ten days): 0%
pest or weed control at 125 g/ha ([7]; post-emergence, Postemergence, visual injury, 0 to 100 scale (0 no effect, 100 complete control), approx. ten days, read-out: Barnyardgrass plant response rating): 10%
pest or weed control at 500 g/ha ([7]; post-emergence, Postemergence, 0 to 100 scale, 0 = no effect, 100 = complete control, approx. ten days, read-out: Plant response rating, Barnyardgrass): 70%
pest or weed control at 125 g/ha ([7]; pre-emergence, Preemergence, 0 to 100 scale, 0 = no effect, 100 = complete control, read-out: Plant response rating, Barnyardgrass): 0%
pest or weed control at 500 g/ha ([7]; pre-emergence, Preemergence, visual injury, 0 to 100 scale (0 no effect, 100 complete control), approx. ten days, read-out: Plant response rating, Barnyardgrass): 80%
plant injury at 250 g/ha (rice (Oryza sativa); 250 g ai/ha, flooded paddy test, visual rating on 0 to 100 scale (0 no effect, 100 complete control) after 13 to 15 days, read-out: Plant response rating, Flood, Rice): 15%
plant injury at 31 g/ha (rice (Oryza sativa); Flood (flooded paddy test), 31 g ai/ha, scale of 0 to 100 where 0 is no effect and 100 is complete control, 13 to 15 days, read-out: Plant response rating, Rice): 0%
plant injury at 62 g/ha (rice (Oryza sativa); Flood (flooded paddy test), 62 g ai/ha, scale 0 to 100, 0 is no effect, 100 is complete control, 13 to 15 days, read-out: Plant response rating, Rice): 0%
plant injury at 125 g/ha (rice (Oryza sativa); Flood (flooded paddy test), 125 g ai/ha, scale 0 to 100, 0 is no effect, 100 is complete control, 13 to 15 days, read-out: Plant response rating, Rice): 0%
pest or weed control at 250 g/ha ([8]; 250 g ai/ha, flooded paddy test, visual rating on 0 to 100 scale (0 no effect, 100 complete control) after 13 to 15 days, read-out: Plant response rating, Flood, Ducksalad): 45%
pest or weed control at 31 g/ha ([8]; Flood (flooded paddy test), 31 g ai/ha, scale of 0 to 100 where 0 is no effect and 100 is complete control, 13 to 15 days, read-out: Plant response rating, Ducksalad): 0%
pest or weed control at 62 g/ha ([8]; Flood (flooded paddy test), 62 g ai/ha, scale 0 to 100, 0 is no effect, 100 is complete control, 13 to 15 days, read-out: Plant response rating, Ducksalad): 30%
pest or weed control at 125 g/ha ([8]; Flood (flooded paddy test), 125 g ai/ha, scale 0 to 100, 0 is no effect, 100 is complete control, 13 to 15 days, read-out: Plant response rating, Ducksalad): 30%

Reference: patent US8952024B2, “Herbicidal pyrimidone derivatives” (E I du Pont de Nemours and Company, priority 2009, dated 2015)
